{"source": "patent US20090048301A1", "about": "(IMCLONE SYSTEMS INCORPORATED, priority 2003, published 2009)"}
{"tested_on": "bovine tubulin", "assay": "In vitro tubulin polymerization assay (turbidity at 340 nm)", "assay_type": "biochemical", "details": "10 μM compound, 30 minute data point, vs 1% DMSO control", "outline": "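Bovine tubulin (97%, <3% MAPs) at 3 mg/ml final in G-PEM pH 7 with 1 mM GTP and 5% glycerol, added cold to compound wells at 37° C (1% DMSO final). A340 read each minute for 30 min; percent inhibition from 30-min point versus DMSO control.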", "units": {"Tubulin Assay: percent inhibition at 10 μM based on 30 minute data": "%"}}
{"molecule": "CN(C)c1ccc(-c2nnc(Nc3ccc4c(c3)OCCO4)o2)c(NCc2ccccn2)c1", "note": "[Compound 230, (2,3-Dihydro-benzo[1,4]dioxin-6-yl)-(5-{4-dimethylamino-2-[(pyridin-2-ylmethyl)-amino]-phenyl}-[1,3,4]oxadiazol-2-yl)-amine]", "Tubulin Assay: percent inhibition at 10 μM based on 30 minute data": 45}
{"molecule": "CN(C)c1ccc(-c2nnc(Nc3ccc4c(c3)OCCO4)o2)c(NCc2ccncc2)c1", "note": "[Compound 231]", "Tubulin Assay: percent inhibition at 10 μM based on 30 minute data": 28}
{"molecule": "CN(C)c1ccc(-c2nnc(Nc3ccc4c(c3)OCCO4)o2)c(NCc2ccc3c(c2)OCO3)c1", "note": "[Compound 232, (5-{2-[(Benzo[1,3]dioxol-5-ylmethyl)-amino]-4-dimethylamino-phenyl}-[1,3,4]oxadiazol-2-yl)-(2,3-dihydro-benzo[1,4]dioxin-6-yl)-amine]", "Tubulin Assay: percent inhibition at 10 μM based on 30 minute data": 26}
{"molecule": "CN(C)c1ccc(-c2nnc(Nc3ccc4c(c3)OCCO4)o2)c(NCc2ccc(F)c(F)c2)c1", "note": "[Compound 233, {5-[2-(3,4-Difluoro-benzylamino)-4-dimethylamino-phenyl]-[1,3,4]oxadiazol-2-yl}-(2,3-dihydro-benzo[1,4]dioxin-6-yl)-amine]", "Tubulin Assay: percent inhibition at 10 μM based on 30 minute data": 40}
{"molecule": "CN(C)c1ccc(-c2nnc(Nc3ccc4c(c3)OCCO4)o2)c(NCc2cncnc2)c1", "note": "[Compound 234, (2,3-Dihydro-benzo[1,4]dioxin-6-yl)-(5-{4-dimethylamino-2-[(pyrimidin-5-ylmethyl)-amino]-phenyl}-[1,3,4]oxadiazol-2-yl)-amine]", "Tubulin Assay: percent inhibition at 10 μM based on 30 minute data": 30}
{"molecule": "COc1cc(CNc2cc(N3CCN(C)CC3)ccc2-c2nnc(Nc3ccc4c(c3)OCCO4)o2)cc(OC)c1", "note": "[Compound 235, (2,3-Dihydro-benzo[1,4]dioxin-6-yl)-{5-[2-(3,5-dimethoxy-benzylamino)-4-(4-methyl-piperazin-1-yl)-phenyl]-[1,3,4]oxadiazol-2-yl}-amine]", "Tubulin Assay: percent inhibition at 10 μM based on 30 minute data": 24}
{"molecule": "CN1CCN(c2ccc(-c3nnc(Nc4ccc5c(c4)OCCO5)o3)c([N+](=O)[O-])c2)CC1", "note": "[Compound 236, (2,3-Dihydro-benzo[1,4]dioxin-6-yl)-{5-[4-(4-methyl-piperazin-1-yl)-2-nitro-phenyl]-[1,3,4]oxadiazol-2-yl}-amine]", "Tubulin Assay: percent inhibition at 10 μM based on 30 minute data": 59}
{"molecule": "Nc1ccccc1-c1nnc(Nc2ccc3c(c2)OCO3)o1", "note": "[Compound 237a, [5-(2-Amino-phenyl)-[1,3,4]oxadiazol-2-yl]-benzo[1,3]dioxol-5-yl-amine]", "Tubulin Assay: percent inhibition at 10 μM based on 30 minute data": 53}
{"molecule": "COc1ccc(S(=O)(=O)Nc2ccccc2-c2nnc(Nc3ccc4c(c3)OCO4)o2)cc1OC", "note": "[Compound 238, N-{2-[5-(Benzo[1,3]dioxol-5-ylamino)-[1,3,4]oxadiazol-2-yl]-phenyl}-3,4-dimethoxy-benzenesulfonamide]", "Tubulin Assay: percent inhibition at 10 μM based on 30 minute data": 65}
{"molecule": "O=S(=O)(Nc1ccccc1-c1nnc(Nc2ccc3c(c2)OCO3)o1)c1cccc(OC(F)(F)F)c1", "note": "[Compound 239, N-{2-[5-(Benzo[1,3]dioxol-5-ylamino)-[1,3,4]oxadiazol-2-yl]-phenyl}-3-trifluoromethoxy-benzenesulfonamide]", "Tubulin Assay: percent inhibition at 10 μM based on 30 minute data": 49}
{"molecule": "Cc1cc(C)cc(CS(=O)(=O)Nc2ccccc2-c2nnc(Nc3ccc4c(c3)OCO4)o2)c1", "note": "[Compound 240, N-{2-[5-(Benzo[1,3]dioxol-5-ylamino)-[1,3,4]oxadiazol-2-yl]-phenyl}-C-(3,5-dimethyl-phenyl)-methanesulfonamide]", "Tubulin Assay: percent inhibition at 10 μM based on 30 minute data": 20}
{"molecule": "N#Cc1ccc(S(=O)(=O)Nc2ccccc2-c2nnc(Nc3ccc4c(c3)OCCO4)o2)cc1", "note": "[Compound 242, 4-Cyano-N-{2-[5-(2,3-dihydro-benzo[1,4]dioxin-6-ylamino)-[1,3,4]oxadiazol-2-yl]-phenyl}-benzenesulfonamide]", "Tubulin Assay: percent inhibition at 10 μM based on 30 minute data": 92}
{"molecule": "COc1cc(Nc2ncccc2-c2nnc(NS(=O)(=O)c3cccc(OC)c3)o2)cc(OC)c1", "note": "[Compound 243, N-{5-[2-(3,5-Dimethoxy-phenylamino)-pyridin-3-yl]-[1,3,4]oxadiazol-2-yl}-3-methoxy-benzenesulfonamide]", "Tubulin Assay: percent inhibition at 10 μM based on 30 minute data": 55}
{"molecule": "COc1cc(Nc2ncccc2-c2nnc(N)o2)cc(OC)c1", "note": "[Compound 243a, [3-(5-Amino-[1,3,4]oxadiazol-2-yl)-pyridin-2-yl]-(3,5-dimethoxy-phenyl)-amine]", "Tubulin Assay: percent inhibition at 10 μM based on 30 minute data": 46}
{"molecule": "c1ccc(-c2cnc(Nc3ccc4c(c3)OCCO4)o2)c(NCc2ccc3c(c2)OCCO3)c1", "note": "[Compound 245, (2,3-Dihydro-benzo[1,4]dioxin-6-yl)-(5-{2-[(2,3-dihydro-benzo[1,4]dioxin-6-ylmethyl)-amino]-phenyl}-oxazol-2-yl)-amine]", "Tubulin Assay: percent inhibition at 10 μM based on 30 minute data": 93}
{"molecule": "Fc1ccc(CNc2ccccc2-c2cnc(Nc3ccc4c(c3)OCCO4)o2)cc1F", "note": "[Compound 247, {5-[2-(3,4-Difluoro-benzylamino)-phenyl]-oxazol-2-yl}-(2,3-dihydro-benzo[1,4]dioxin-6-yl)-amine]", "Tubulin Assay: percent inhibition at 10 μM based on 30 minute data": 94}
{"molecule": "c1cncc(CNc2ccccc2-c2cnc(Nc3ccc4c(c3)OCCO4)o2)c1", "note": "[Compound 248, (2,3-Dihydro-benzo[1,4]dioxin-6-yl)-(5-{2-[(pyridin-3-ylmethyl)-amino]-phenyl}-oxazol-2-yl)-amine]", "Tubulin Assay: percent inhibition at 10 μM based on 30 minute data": 79}
{"molecule": "COc1cccc(Nc2ncc(-c3ccccc3NCc3cc(OC)cc(OC)c3)o2)c1", "note": "[Compound 251, {5-[2-(3,5-Dimethoxy-benzylamino)-phenyl]-oxazol-2-yl}-(3-methoxy-phenyl)-amine]", "Tubulin Assay: percent inhibition at 10 μM based on 30 minute data": 30}
{"molecule": "COc1cccc(Nc2ncc(-c3ccccc3NCc3ccc(F)c(F)c3)o2)c1", "note": "[Compound 252, {5-[2-(3,4-Difluoro-benzylamino)-phenyl]-oxazol-2-yl}-(3-methoxy-phenyl)-amine]", "Tubulin Assay: percent inhibition at 10 μM based on 30 minute data": 27}
{"molecule": "c1ccc(-c2cnc(Nc3ccc4c(c3)OCCO4)o2)c(OCc2ccncc2)c1", "note": "[Compound 253, (2,3-Dihydro-benzo[1,4]dioxin-6-yl)-{5-[2-(pyridin-4-ylmethoxy)-phenyl]-oxazol-2-yl}-amine]", "Tubulin Assay: percent inhibition at 10 μM based on 30 minute data": 44}
{"molecule": "c1cncc(COc2ccccc2-c2cnc(Nc3ccc4c(c3)OCCO4)o2)c1", "note": "[Compound 254, (2,3-Dihydro-benzo[1,4]dioxin-6-yl)-{5-[2-(pyridin-3-ylmethoxy)-phenyl]-oxazol-2-yl}-amine]", "Tubulin Assay: percent inhibition at 10 μM based on 30 minute data": 95}
{"molecule": "COc1cccc(Nc2ncc(-c3ccccc3OCc3ccncc3)o2)c1", "note": "[Compound 256, (3-Methoxy-phenyl)-{5-[2-(pyridin-4-ylmethoxy)-phenyl]-oxazol-2-yl}-amine]", "Tubulin Assay: percent inhibition at 10 μM based on 30 minute data": 50}
{"molecule": "COc1cccc(Nc2ncc(-c3ccccc3OCc3cccnc3)o2)c1", "note": "[Compound 257, (3-Methoxy-phenyl)-{5-[2-(pyridin-3-ylmethoxy)-phenyl]-oxazol-2-yl}-amine]", "Tubulin Assay: percent inhibition at 10 μM based on 30 minute data": 27}
